These are literature values, as cited in patent US12268663B2, “Method for treating pruritus” (Pruvyc Pharma, LLC, priority 2020, dated 2025).

The target in series [1] is histamine H1 receptor (Homo sapiens, UniProt P35367).
Series [2] deals with connective tissue mast cells.
Series [3] addresses serotonin S2 receptor (Homo sapiens, UniProt P28223).

Sequence of serotonin S2 receptor (P28223 whole entry): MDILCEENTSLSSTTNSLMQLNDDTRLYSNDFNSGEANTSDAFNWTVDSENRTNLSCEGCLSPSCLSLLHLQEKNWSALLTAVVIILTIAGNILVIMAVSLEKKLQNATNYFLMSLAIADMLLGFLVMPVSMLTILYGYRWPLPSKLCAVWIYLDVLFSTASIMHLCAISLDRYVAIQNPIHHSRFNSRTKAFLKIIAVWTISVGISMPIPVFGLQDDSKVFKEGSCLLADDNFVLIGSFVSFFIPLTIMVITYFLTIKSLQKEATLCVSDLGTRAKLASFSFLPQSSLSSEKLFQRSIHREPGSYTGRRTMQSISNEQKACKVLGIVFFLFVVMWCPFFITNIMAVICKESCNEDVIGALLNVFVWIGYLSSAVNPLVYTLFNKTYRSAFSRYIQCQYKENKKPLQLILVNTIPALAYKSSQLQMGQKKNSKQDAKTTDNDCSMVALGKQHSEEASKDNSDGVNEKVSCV
Sequence of histamine H1 receptor (P35367 whole entry): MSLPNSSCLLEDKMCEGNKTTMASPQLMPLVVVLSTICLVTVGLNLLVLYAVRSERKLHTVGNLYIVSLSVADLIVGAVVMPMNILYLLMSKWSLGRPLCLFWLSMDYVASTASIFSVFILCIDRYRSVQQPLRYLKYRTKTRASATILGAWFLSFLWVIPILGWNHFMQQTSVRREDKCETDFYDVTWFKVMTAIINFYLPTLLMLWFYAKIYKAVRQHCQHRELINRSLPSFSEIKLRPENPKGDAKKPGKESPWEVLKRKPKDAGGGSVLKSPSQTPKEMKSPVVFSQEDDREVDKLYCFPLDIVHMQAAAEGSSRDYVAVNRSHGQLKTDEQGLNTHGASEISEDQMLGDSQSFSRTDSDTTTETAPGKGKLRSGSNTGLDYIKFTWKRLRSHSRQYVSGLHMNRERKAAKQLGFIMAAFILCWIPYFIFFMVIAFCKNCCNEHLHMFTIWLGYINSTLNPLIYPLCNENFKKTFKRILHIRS

Turning to `CN(C)CC/C=C1/c2ccccc2COc2ccc(CC(=O)O)cc21` [Olopatadine, olopatadine], in series [1], the “binding to histamine H1 receptor” value is on record as “bind”. For the same compound, the “allergic mediator release from connective tissue mast cells” value in series [2] is given as “inhibits allergic mediator release”. In addition, the “binding to serotonin S2 receptor” value in series [3] is “bind”.
